From ChEMBL document CHEMBL4382234, “Fluoroquinolone-isatin hybrids and their biological activities” (Eur J Med Chem, 2019)
Values after ≈ are worked out from the molar mass of the structure shown.

Experiments:
Type in all cases: functional
[1] = test system: Mycobacterium tuberculosis; experiment: Antimycobacterial activity against Mycobacterium tuberculosis H37Rv after 3 to 7 days by rapid direct susceptibility test
[2] = test system: Mycobacterium tuberculosis; experiment: Antitubercular activity against Mycobacterium tuberculosis H37Rv by microplate alamar blue assay
[3] = test system: Mycobacterium tuberculosis; experiment: Antimycobacterial activity against Mycobacterium tuberculosis H37Rv ATCC 27294 by rapid direct susceptibility test
[4] = test system: Mycolicibacterium smegmatis; experiment: Antimycobacterial activity against Mycobacterium smegmatis CMCC 93202 after 72 hrs by double dilution method; settings: CMCC 93202, 72 h

## CCO/N=C1/C(=O)N(CCn2cc(CN3CCC[C@H]4CN(c5c(F)cc6c(=O)c(C(=O)O)cn(C7CC7)c6c5OC)C[C@H]43)nn2)c2ccccc21
[1]
  MIC: 0.1 to 0.78 µg/mL (≈ 0.143 to 1.12 µM)

## COc1cc(Cc2cnc(/N=C3\C(=O)N(CN4CCN(c5c(F)cc6c(=O)c(C(=O)O)cn(C7CC7)c6c5OC)CC4C)c4ccc(C)cc43)nc2N)cc(OC)c1OC (configuration not stated)
[2]
  MIC: 0.78 to 3.13 µg/mL (≈ 0.95 to 3.81 µM)

## COc1c(N2C[C@@H]3CCCN[C@@H]3C2)c(F)cc2c(=O)c(C(=O)O)cn(C3CC3)c12 [MOXIFLOXACIN]
[1]
  MIC: 0.1 µg/mL (≈ 0.249 µM)
[3]
  MIC: 0.1 to 1 µg/mL (≈ 0.249 to 2.49 µM)
[4]
  MIC: 0.1 to 1 µg/mL (≈ 0.249 to 2.49 µM)

## COc1c(N2C[C@@H]3CCCN(CCN4C(=O)/C(=N\O)c5cc(F)ccc54)[C@@H]3C2)c(F)cc2c(=O)c(C(=O)O)cn(C3CC3)c12
[3]
  MIC: 0.39 to 16 µg/mL (≈ 0.642 to 26.3 µM)
[4]
  MIC: 0.39 to 16 µg/mL (≈ 0.642 to 26.3 µM)

## NC(=S)N/N=C1/C(=O)N(CCCN2CCN(c3cc4c(cc3F)c(=O)c(C(=O)O)cn4C3CC3)CC2)c2ccccc21
[1]
  MIC: 0.1 to 64 µg/mL (≈ 0.169 to 108 µM)

## NC(=O)N/N=C1/C(=O)N(CCCN2CCN(c3cc4c(cc3F)c(=O)c(C(=O)O)cn4C3CC3)CC2)c2ccccc21
[1]
  MIC: 0.1 to 64 µg/mL (≈ 0.174 to 111 µM)

## COc1c(N2C[C@@H]3CCCN(Cc4cn(CCN5C(=O)/C(=N/NC(N)=O)c6ccccc65)nn4)[C@@H]3C2)c(F)cc2c(=O)c(C(=O)O)cn(C3CC3)c12
[1]
  MIC: 0.1 to 0.78 µg/mL (≈ 0.14 to 1.09 µM)

## COc1cc(Cc2cnc(/N=C3\C(=O)N(CN4CCN(c5cc6c(cc5F)c(=O)c(C(=O)O)cn6C5CC5)CC4)c4ccc(C)cc43)nc2N)cc(OC)c1OC
[2]
  MIC: 0.78 to 3.13 µg/mL (≈ 1 to 4.03 µM)

## COc1cc(Cc2cnc(/N=C3\C(=O)N(CN4CCN(c5cc6c(cc5F)c(=O)c(C(=O)O)cn6C5CC5)CC4)c4ccc(Cl)cc43)nc2N)cc(OC)c1OC
[2]
  MIC: 0.78 to 3.13 µg/mL (≈ 0.978 to 3.93 µM)

## NC[C@H]1O[C@H](O[C@H]2[C@H](O)[C@@H](O[C@H]3O[C@H](CO)[C@@H](O)[C@H](N)[C@H]3O)[C@H](N)C[C@@H]2N)[C@H](O)[C@@H](O)[C@@H]1O [KANAMYCIN]
[2]
  MIC: 5 µg/mL (≈ 10.3 µM)

## COc1c(N2C[C@@H]3CCCN(CCN4C(=O)/C(=N\NC(N)=S)c5cc(F)ccc54)[C@@H]3C2)c(F)cc2c(=O)c(C(=O)O)cn(C3CC3)c12
[3]
  MIC: 0.39 to 16 µg/mL (≈ 0.586 to 24 µM)
[4]
  MIC: 0.39 to 16 µg/mL (≈ 0.586 to 24 µM)

## CCO/N=C1\C(=O)N(CCN2CCC[C@H]3CN(c4c(F)cc5c(=O)c(C(=O)O)cn(C6CC6)c5c4OC)C[C@H]32)c2ccccc21
[3]
  MIC: 0.39 to 16 µg/mL (≈ 0.631 to 25.9 µM)
[4]
  MIC: 0.39 to 16 µg/mL (≈ 0.631 to 25.9 µM)

## NNC(=O)c1ccncc1 [ISONIAZID]
[1]
  MIC: > 128 µg/mL
[2]
  MIC: 0.05 µg/mL (≈ 0.365 µM)

## CCO/N=C1\C(=O)N(CN2CCC[C@H]3CN(c4c(F)cc5c(=O)c(C(=O)O)cn(C6CC6)c5c4OC)C[C@H]32)c2ccccc21
[3]
  MIC: 0.39 to 16 µg/mL (≈ 0.646 to 26.5 µM)
[4]
  MIC: 0.39 to 16 µg/mL (≈ 0.646 to 26.5 µM)

## COc1c(N2C[C@@H]3CCCN(CCN4C(=O)C(=O)c5ccccc54)[C@@H]3C2)c(F)cc2c(=O)c(C(=O)O)cn(C3CC3)c12
[3]
  MIC: 0.39 to 16 µg/mL (≈ 0.679 to 27.8 µM)
[4]
  MIC: 0.39 to 16 µg/mL (≈ 0.679 to 27.8 µM)

## COc1c(N2C[C@@H]3CCCN(CN4C(=O)/C(=N\NC(N)=S)c5ccccc54)[C@@H]3C2)c(F)cc2c(=O)c(C(=O)O)cn(C3CC3)c12
[3]
  MIC: 0.39 to 16 µg/mL (≈ 0.615 to 25.2 µM)
[4]
  MIC: 0.39 to 16 µg/mL (≈ 0.615 to 25.2 µM)

## CO/N=C1\C(=O)N(CCN2CCC[C@H]3CN(c4c(F)cc5c(=O)c(C(=O)O)cn(C6CC6)c5c4OC)C[C@H]32)c2ccccc21
[3]
  MIC: 0.39 to 16 µg/mL (≈ 0.646 to 26.5 µM)
[4]
  MIC: 0.39 to 16 µg/mL (≈ 0.646 to 26.5 µM)

## CO[C@H]1/C=C/O[C@@]2(C)Oc3c(C)c(O)c4c(O)c(c(/C=N/N5CCN(C)CC5)c(O)c4c3C2=O)NC(=O)/C(C)=C\C=C\[C@H](C)[C@H](O)[C@@H](C)[C@@H](O)[C@@H](C)[C@H](OC(C)=O)[C@@H]1C [RIFAMPIN]
[1]
  MIC: 0.25 to 0.39 µg/mL (≈ 0.304 to 0.474 µM)
[2]
  MIC: 0.125 µg/mL (≈ 0.152 µM)

## CCO/N=C1\C(=O)N(CN2CCC[C@H]3CN(c4c(F)cc5c(=O)c(C(=O)O)cn(C6CC6)c5c4OC)C[C@H]32)c2ccc(F)cc21
[3]
  MIC: 0.39 to 16 µg/mL (≈ 0.627 to 25.7 µM)
[4]
  MIC: 0.39 to 16 µg/mL (≈ 0.627 to 25.7 µM)

## CCn1cc(C(=O)O)c(=O)c2cc(F)c(N3CCN(CN4C(=O)/C(=N\c5ncc(Cc6cc(OC)c(OC)c(OC)c6)c(N)n5)c5cc(Cl)ccc54)C(C)C3)c(F)c21 (configuration not stated)
[2]
  MIC: 0.78 to 3.13 µg/mL (≈ 0.954 to 3.83 µM)

## COc1c(N2C[C@@H]3CCCN(Cc4cn(CCN5C(=O)C(=O)c6ccccc65)nn4)[C@@H]3C2)c(F)cc2c(=O)c(C(=O)O)cn(C3CC3)c12
[1]
  MIC: 0.1 to 0.78 µg/mL (≈ 0.153 to 1.19 µM)

## CO/N=C1\C(=O)N(CN2CCC[C@H]3CN(c4c(F)cc5c(=O)c(C(=O)O)cn(C6CC6)c5c4OC)C[C@H]32)c2ccc(F)cc21
[3]
  MIC: 0.39 to 16 µg/mL (≈ 0.642 to 26.3 µM)
[4]
  MIC: 0.39 to 16 µg/mL (≈ 0.642 to 26.3 µM)

## CC[C@@H](CO)NCCN[C@@H](CC)CO [ETHAMBUTOL]
[2]
  MIC: 1.88 µg/mL (≈ 9.2 µM)

## O=C(O)c1cn(C2CC2)c2cc(N3CCN(CCCN4C(=O)/C(=N/O)c5ccccc54)CC3)c(F)cc2c1=O
[1]
  MIC: 0.1 to 64 µg/mL (≈ 0.187 to 120 µM)

## COc1c(N2C[C@@H]3CCCN(CCN4C(=O)/C(=N\NC(N)=S)c5ccccc54)[C@@H]3C2)c(F)cc2c(=O)c(C(=O)O)cn(C3CC3)c12
[3]
  MIC: 0.39 to 16 µg/mL (≈ 0.602 to 24.7 µM)
[4]
  MIC: 0.39 to 16 µg/mL (≈ 0.602 to 24.7 µM)

## COc1c(N2C[C@@H]3CCCN(CCN4C(=O)/C(=N\NC(N)=O)c5cc(F)ccc54)[C@@H]3C2)c(F)cc2c(=O)c(C(=O)O)cn(C3CC3)c12
[3]
  MIC: 0.39 to 16 µg/mL (≈ 0.6 to 24.6 µM)
[4]
  MIC: 0.39 to 16 µg/mL (≈ 0.6 to 24.6 µM)

## CCn1cc(C(=O)O)c(=O)c2cc(F)c(N3CCN(CN4C(=O)/C(=N\c5ncc(Cc6cc(OC)c(OC)c(OC)c6)c(N)n5)c5cc(C)ccc54)C(C)C3)c(F)c21 (configuration not stated)
[2]
  MIC: 0.78 to 3.13 µg/mL (≈ 0.979 to 3.93 µM)
